This assay addresses T1, SIRT1 (Homo sapiens, UniProt Q96EB6).
T1 sequence (Q96EB6 1-747): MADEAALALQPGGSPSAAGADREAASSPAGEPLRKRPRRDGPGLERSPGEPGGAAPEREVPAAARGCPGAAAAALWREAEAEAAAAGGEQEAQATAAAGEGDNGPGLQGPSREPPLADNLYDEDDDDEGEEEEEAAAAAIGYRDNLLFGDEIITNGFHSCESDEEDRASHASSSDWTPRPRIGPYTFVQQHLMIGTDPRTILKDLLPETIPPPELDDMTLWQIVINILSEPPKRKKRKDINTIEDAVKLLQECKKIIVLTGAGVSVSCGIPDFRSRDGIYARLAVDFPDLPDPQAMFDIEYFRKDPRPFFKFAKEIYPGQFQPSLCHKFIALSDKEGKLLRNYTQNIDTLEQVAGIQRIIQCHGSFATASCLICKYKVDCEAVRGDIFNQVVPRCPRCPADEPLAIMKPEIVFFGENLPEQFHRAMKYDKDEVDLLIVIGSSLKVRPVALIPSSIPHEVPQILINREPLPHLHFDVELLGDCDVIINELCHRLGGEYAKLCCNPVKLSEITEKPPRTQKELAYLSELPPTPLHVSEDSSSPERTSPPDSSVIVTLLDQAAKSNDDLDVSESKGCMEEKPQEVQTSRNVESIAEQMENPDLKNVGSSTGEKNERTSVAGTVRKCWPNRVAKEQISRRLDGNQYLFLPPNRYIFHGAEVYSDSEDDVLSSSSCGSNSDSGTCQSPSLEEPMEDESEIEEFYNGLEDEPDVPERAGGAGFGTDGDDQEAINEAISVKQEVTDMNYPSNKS
Nature of the assay: mass spectrometry based SIRT1 deacetylation assay (activation). Particulars: 0.5 μM peptide substrate, 120 μM βNAD+, 10 nM SIRT1, 25 min at 25° C.; for Emax: read-out: % FOLD ACT. (percent maximum fold activation of SIRT1); for EC1.5 (concentration of test compound that results in 150% activation of SIRT1): NA = not active in the assay. In kind it is biochemical. The source says:
A mass spectrometry based assay was used to identify modulators of SIRT1 activity. The mass spectrometry based assay utilizes a peptide having 20 amino acid residues as follows: Ac-EE-K(biotin)-GQSTSSHSK(Ac)NleSTEG-K(5TMR)-EE-NH2 (SEQ ID NO: 1) wherein K(Ac) is an acetylated lysine residue and Nle is a norleucine. The peptide is labeled with the fluorophore 5TMR (excitation 540 nm/emission 580 nm) at the C-terminus. The sequence of the peptide substrate is based on p53 with several modifications. In addition, the methionine residue naturally present in the sequence was replaced with the norleucine because the methionine may be susceptible to oxidation during synthesis and purification.
Test compounds may be added to the reaction as described above. […] After the 25 minute incubation with SIRT1, 10 μL of 10% formic acid is added to stop the reaction. Reactions are sealed and frozen for later mass spec analysis. Determination of the mass of the substrate peptide allows for precise determination of the degree of acetylation (i.e. starting material) as compared to deacetylated peptide (product).
A control for inhibition of sirtuin activity is conducted by adding 1 μL of 500 mM nicotinamide as a negative control at the start of the reaction (e.g., permits determination of maximum sirtuin inhibition). A control for activation of sirtuin activity is conducted using 10 nM of sirtuin protein, with 1 μL of DMSO in place of compound, to determine the amount of deacetylation of the substrate at a given timepoint within the linear range of the assay. This timepoint is the same as that used for test compounds and, within the linear range, the endpoint represents a change in velocity.
For the above assay, SIRT1 protein was expressed and purified as follows. […] The protein was expressed by induction with 1 mM IPTG as an N-terminal His-tag fusion protein at 18° C. overnight and harvested at 30,000×g. Cells were lysed with lysozyme in lysis buffer (50 mM Tris-HCl, 2 mM Tris[2-carboxyethyl]phosphine (TCEP), 10 μM ZnCl2, 200 mM NaCl) and further treated with sonication for 10 min for complete lysis. The protein was purified over a Ni-NTA column (Amersham) and fractions containing pure protein were pooled, concentrated and run over a sizing column (Sephadex S200 26/60 global). The peak containing soluble protein was collected and run on an Ion-exchange column (MonoQ). Gradient elution (200 mM-500 mM NaCl) yielded pure protein. This protein was concentrated and dialyzed against dialysis buffer (20 mM Tris-HCl, 2 mM TCEP) overnight. The protein was aliquoted and frozen at −80° C. until further use.
Sirtuin modulating compounds that activated SIRT1 were identified using the assay described above and are shown below in Table 3. The EC1.5 values represent the concentration of test compounds that result in 150% activation of SIRT1. NT means that the compound was not tested using the indicated assay. NA means that the compound was not active in the indicated assay.

For `O=C(Nc1ccccc1-c1nc2ccc(CN3CCNCC3)nc2s1)c1cnc2ccccc2n1` [Compound 66], the Emax came to 336%.
In the case of `O=C(Nc1ccccc1-c1nc2cc(CN3CCOCC3)cnc2s1)c1ccc2ccccc2n1` [Compound 68], the “EC1.5 (concentration of test compound that results in 150% activation of SIRT1)” value was 593 NM and the Emax came out at 295%.
In the case of `O=C(Nc1ccccc1-c1nc2ccc(CN3CCNCC3)nc2s1)c1ccc2ccccc2n1` [Compound 69], the “EC1.5 (concentration of test compound that results in 150% activation of SIRT1)” value turned out to be 687 NM and the Emax was more than 500%.
For `O=C(Nc1ccccc1-c1nc2cc(CN3CCNCC3)cnc2s1)c1ccc2ncsc2c1` [Compound 70], the Emax was 298%.
With `O=C(Nc1ccccc1-c1nc2cc(CN3CCNCC3)cnc2s1)c1ccn(-c2ccccc2)n1` [Compound 71], the “EC1.5 (concentration of test compound that results in 150% activation of SIRT1)” value is 1460 NM and the Emax was 304%.
With `O=C(Nc1ccccc1-c1nc2cc(CN3CCOCC3)cnc2s1)c1ccnc(-c2ccccc2)n1` [Compound 72], the Emax stood at 100%.
As to `O=C(Nc1ccccc1-c1nc2cc(CN3CCNCC3)cnc2s1)c1ccnc(-c2ccccc2)n1` [Compound 73], the “EC1.5 (concentration of test compound that results in 150% activation of SIRT1)” value amounted to 2970 NM and the Emax is 183%.
For `COc1ccc(-c2ccc(C(=O)Nc3ccccc3-c3nc4cc(CN5CCOCC5)cnc4s3)o2)cc1` [Compound 74], in that order: 421 NM and 236%.
`O=C(Nc1ccccc1-c1nc2cc(CN3CCNCC3)cnc2s1)c1cccc(-c2nnn[nH]2)c1` [Compound 76]: the “EC1.5 (concentration of test compound that results in 150% activation of SIRT1)” value is on record as 2790 NM and the Emax was 285%.
For `O=C(Nc1ccccc1-c1nc2cc(CN3CCOCC3)cnc2s1)c1cccc(-c2nnn[nH]2)c1` [Compound 77], in that order: 3920 NM and 204%.
Turning to `Cc1nc(-c2cccnc2)sc1C(=O)Nc1ccccc1-c1nc2cc(CN3CCC(N)CC3)cnc2s1` [Compound 78], the “EC1.5 (concentration of test compound that results in 150% activation of SIRT1)” value is listed as 565 NM and the Emax amounted to 297%.
Take `Cc1nc(-c2cccnc2)sc1C(=O)Nc1ccccc1-c1nc2cc(CN3CC[C@@H](N)C3)cnc2s1` [Compound 79]: the “EC1.5 (concentration of test compound that results in 150% activation of SIRT1)” value amounted to 1220 NM and the Emax was determined as 240%.
For `Cc1nc(-c2cccnc2)sc1C(=O)Nc1ccccc1-c1nc2cc(CN3CCOCC3)cnc2s1` [Compound 80], the Emax came out at 100%.
For `Cc1nc(-c2cccnc2)sc1C(=O)Nc1ccccc1-c1nc2cc(CN3C[C@@H](C)N[C@@H](C)C3)cnc2s1` [Compound 81], the Emax came out at 131%.
Take `Cc1nc(-c2cccnc2)sc1C(=O)Nc1ccccc1-c1nc2cc(CN[C@H]3CCNC3)cnc2s1` [Compound 82]: the “EC1.5 (concentration of test compound that results in 150% activation of SIRT1)” value turned out to be 878 NM and the Emax turned out to be 224%.
As for `Cc1nc(-c2cccnc2)sc1C(=O)Nc1ccccc1-c1nc2cc(CNC(C)C)cnc2s1` [Compound 83], the Emax came to 100%.
Turning to `O=C(Nc1ccccc1-c1nc2cc(CN3CC[C@@H](F)C3)cnc2s1)c1cccc(-n2cnnn2)c1` [Compound 84], the “EC1.5 (concentration of test compound that results in 150% activation of SIRT1)” value was 4270 NM and the Emax amounted to 166%.
Consider `COCCN1CCN(Cc2cnc3sc(-c4ccccc4NC(=O)c4sc(-c5cccnc5)nc4C)nc3c2)CC1` [Compound 85], for which the “EC1.5 (concentration of test compound that results in 150% activation of SIRT1)” value turned out to be 16700 NM and the Emax is 182%.
Consider `COCCN1CCN(Cc2cnc3sc(-c4ccccc4NC(=O)c4cc(-c5ccccc5)ccn4)nc3c2)CC1` [Compound 86], for which the Emax came to 137%.
Consider `COCCN1CCN(Cc2cnc3sc(-c4ccccc4NC(=O)c4cc(-c5ccccc5)ncn4)nc3c2)CC1` [Compound 87], for which the “EC1.5 (concentration of test compound that results in 150% activation of SIRT1)” value was 955 NM and the Emax worked out at 166%.
Take `COCCN1CCN(Cc2cnc3sc(-c4ccccc4NC(=O)c4cc(-c5ccccc5)cn4C)nc3c2)CC1` [Compound 88]: the “EC1.5 (concentration of test compound that results in 150% activation of SIRT1)” value worked out at 14 NM and the Emax was 272%.
In the same order, the values of `Cc1c(C(=O)Nc2ccccc2-c2nc3cc(CN4CCNCC4)cnc3s2)oc2ccccc12` [Compound 89] are 235 NM and 239%.
Take `CN1CCN(Cc2cnc3sc(-c4ccccc4NC(=O)c4ccc5ccccc5n4)nc3c2)CC1` [Compound 90]: the “EC1.5 (concentration of test compound that results in 150% activation of SIRT1)” value came out at 190 NM and the Emax was found to be 221%.
For `O=C(Nc1ccccc1-c1nc2cc(CN3CCNCC3)cnc2s1)c1nc2ccccc2s1` [Compound 91], the “EC1.5 (concentration of test compound that results in 150% activation of SIRT1)” value came to 4410 NM and the Emax was found to be 333%.
As for `CN(C)Cc1cnc2sc(-c3ccccc3NC(=O)c3cnc4ccccc4n3)nc2c1` [Compound 92], the “EC1.5 (concentration of test compound that results in 150% activation of SIRT1)” value was determined as 2810 NM and the Emax was found to be 163%.
As to `O=C(Nc1ccccc1-c1nc2cc(CN3CCOCC3)cnc2s1)c1nc2ccccc2s1` [Compound 93], the “EC1.5 (concentration of test compound that results in 150% activation of SIRT1)” value worked out at 510 NM and the Emax came to 236%.
As to `O=C(Nc1ccccc1-c1nc2cc(Cn3ccnc3)cnc2s1)c1ccc2ccccc2n1` [Compound 94], the “EC1.5 (concentration of test compound that results in 150% activation of SIRT1)” value is listed as 150 NM and the Emax worked out at 182%.
For the molecule `O=C(Nc1ccccc1-c1nc2cc(CN3CCCC3)cnc2s1)c1ccc2ccccc2n1` [Compound 95], the “EC1.5 (concentration of test compound that results in 150% activation of SIRT1)” value is on record as 160 NM and the Emax worked out at 252%.
Consider `O=C(Nc1ccccc1-c1nc2cc(CN3CCOCC3)cnc2s1)c1ccc2ccccc2c1` [Compound 96], for which the “EC1.5 (concentration of test compound that results in 150% activation of SIRT1)” value was 1060 NM and the Emax amounted to 162%.
In the same order, the values of `O=C(Nc1ccccc1-c1nc2cc(CN3CCOCC3)cnc2s1)c1cccc2ccccc12` [Compound 97] are 3020 NM and 186%.
Take `O=C(Nc1ccccc1-c1nc2cc(CN3CCOCC3)cnc2s1)c1nc2ccccc2o1` [Compound 98]: the Emax came out at 139%.
Take `O=C(Nc1ccccc1-c1nc2cc(CN3CCC(O)CC3)cnc2s1)c1ccc2ccccc2n1` [Compound 99]: the “EC1.5 (concentration of test compound that results in 150% activation of SIRT1)” value is given as 110 NM and the Emax worked out at 244%.
Turning to `O=C(Nc1ccccc1-c1nc2cc(CN3CC[C@H](F)C3)cnc2s1)c1ccc2ccccc2n1` [Compound 100], the “EC1.5 (concentration of test compound that results in 150% activation of SIRT1)” value stood at 1440 NM and the Emax amounted to 201%.
Consider `O=C(Nc1ccccc1-c1nc2cc(CN3CCC(F)(F)C3)cnc2s1)c1ccc2ccccc2n1` [Compound 101], for which the Emax came out at 133%.
With `O=C(Nc1ccccc1-c1nc2cc(CN3CCC(F)(F)CC3)cnc2s1)c1ccc2ccccc2n1` [Compound 102], the Emax was 131%.
